The text below walks through data of patent publication US20140288323A1, “CYCLOPROPENIMINE CATALYST COMPOSITIONS AND PROCESSES” (THE TRUSTEES OF COLUMBIA UNIVERSITY IN THE CITY OF NEW YORK, priority 2011, published 2014).

“And” between values parts separate entries of the source, which are not always exact repeats. Equal entries are not always repeated. Structures can show the parent of a compound that is named as a salt.

Data set [1] is described as follows: Storage of cyclopropenimine hydrochloride salts at room temperature. In kind it is physicochemical. The following applies: stored at room temperature. As for the experimental part: (§1) tert-Butylamine (1.4 mL, 13.25 mmol, 3.0 equiv) was added to a solution of chlorocyclopropenium salt (Yoshida et al., 1971) (1.640 g, 4.42 mmol, 1.0 equiv) in CH2Cl2 (50 mL). A white precipitate was observed as the reaction mixture was stirred for 48 hours at room temperature. The crude reaction mixture was washed with 1.0 M HCl (3×30 mL), dried with anhydrous sodium sulfate and concentrated in vacuo to yield pure cyclopropenimine hydrochloride salt as a white solid (1.490 g, 97% yield). […] Neutral cyclopropenimine was prepared in situ in CD3CN to be used for pKBH+ estimation. ^1H NMR data was recorded after addition of excess sodium hydride or potassium tert-butoxide to the corresponding cyclopropenimine hydrochloride salt in CD3CN. ^1H NMR (300 MHz, CD3CN) δ 3.60 (m, 4H, NCH(CH3)2), 1.10-1.40 (m, 33H, NC(CH3)3, NCH(CH3)2).
Dicyclohexylamine (93.3 mL, 469.0 mmol, 6.0 equiv) was slowly added to a solution of tetrachlorocyclopropene (9.59 mL, 78.16 mmol, 1.0 equiv) in CH2Cl2 (800 mL) in a 3-liter round bottom flask. A white precipitate formed as the reaction mixture was stirred for a further four hours at room temperature. Next, (S)-2-amino-3-phenylpropan-1-ol (13.0 g, 86.0 mmol, 1.1 equiv) was added in one portion and the reaction mixture was stirred for an additional ten hours. The crude reaction mixture was filtered through a celite plug, then washed with 1.0 M HCl (3×400 mL), dried with anhydrous sodium sulfate and concentrated in vacuo to yield pure cyclopropenimine hydrochloride salt as a white solid (45.0 g, 99% yield). […] 13C NMR (100 MHz, CDCl3) δ 137.8, 129.2, 128.0, 126.2, 116.5, 114.5, 63.7, 61.3, 59.1, 38.4, 32.1, 31.9, 25.4, 24.4. X-Ray quality crystals were obtained by slow condensation of hexanes into a benzene solution of cyclopropenimine hydrochloride salt.
Dicyclohexylamine (1.27 mL, 6.42 mmol, 6.0 equiv) was slowly added to a solution of tetrachlorocyclopropene (0.13 mL, 1.07 mmol, 1.0 equiv) in CH2Cl2 (20 mL) at room temperature. A white precipitate formed as the reaction mixture was stirred for a further four hours. Next, (S)-1-phenylethanamine (0.28 mL, 2.14 mmol, 2.0 equiv) was added in one portion and the reaction mixture was stirred overnight. The crude reaction mixture was filtered through a celite plug, then washed with 1.0 M HCl (3×20 mL), dried with anhydrous sodium sulfate and concentrated in vacuo to yield pure cyclopropenimine hydrochloride salt as a white solid (567 mg, 96% yield).
The crude reaction mixture was washed with 1.0 M HCl (3×10 mL), dried with anhydrous sodium sulfate and concentrated in vacuo to yield pure cyclopropenimine hydrochloride salt as a pale yellow solid (440 mg, 98% yield).

For data set [2] the following is noted: in acetonitrile; Kaljurand et al., 2005; cited from earlier work.
Data set [3] in a line: Rearrangement rate study: storage stability of cyclopropenimine 5 and 5.HCl by 1H NMR. Format: physicochemical. As for the experimental part: Freshly obtained cyclopropenimine 5 was placed in a vial (250 mg per vial) and stored at room temperature and in a −20° C. freezer. Freshly isolated cyclopropenimine hydrochloride salt (250 mg of 5.HCl) was also stored at room temperature. At each time point, a small amount of the solid was removed and its ^1H NMR (CDCl3) was used to measure the ratio of cyclopropenimine to the rearranged product.

A short description of data set [4]: pKBH+ estimation of cyclopropenimine 1 by 1H NMR equilibrium with reference bases in CD3CN. In kind it is physicochemical. As to the method:
The inventors have measured the acidity of the conjugate acid (pKBH+) of cyclopropenimine (compound 1),
These findings confirm for the first time that 2,3-bis(dialkylamino)cyclopropenimines are indeed potent Brønsted bases.
as §1
Cyclopropenimine hydrochloride (18.2 mg, 0.053 mmol, 1.0 equiv) and 1,8-diazabicycloundec-7-ene (7.9 μl, 0.053 mmol, 1.0 equiv) were dissolved in CD3CN. The ^1H NMR chemical shift of the cyclopropenimine isopropyl groups was used to estimate the equilibrium ratio and equilibrium constant of the reaction. The equilibrium constant was then used, with the known pKBH+ of DBU (Kaljurand et al., 2005), to determine the estimated pKBH+. The experiment was repeated in triplicate. A representative ^1H NMR spectrum of the experiment is included.
Cyclopropenimine hydrochloride (13.8 mg, 0.04 mmol, 1.0 equiv) and tert-Butylimino-tri(pyrrolidino)phosphorane (12.5 mg, 0.04 mmol, 1.0 equiv) were dissolved in CD3CN. The ^1H NMR chemical shift of the cyclopropenimine isopropyl groups was used to estimate the equilibrium ratio and equilibrium constant of the reaction. The equilibrium constant was then used, with the known pKBH+ of BTPP (Kaljurand et al., 2005), to determine the estimated pKBH+. The experiment was repeated in triplicate.

As for `C[C@H](N=c1c(N(C2CCCCC2)C2CCCCC2)c1N(C1CCCCC1)C1CCCCC1)c1ccccc1.Cl` [7.HCl, (S)—N1,N1,N2,N2-tetracyclohexyl-3-(1-phenylethylimino)cycloprop-1-ene-1,2-diamine hydrochloride salt], the “storage stability of the hydrochloride salt” value in data set [1] is reported as “without noticeable decomposition”.
Still for that read-out and setting: next, `CC(C)N(c1c(N(C(C)C)C(C)C)c1=N[C@H](CO)Cc1ccccc1)C(C)C.Cl` [8.HCl, (S)-2-(2,3-bis(diisopropylamino)cycloallylamino)-3-phenylpropan-1-ol hydrochloride salt]: “without noticeable decomposition”.
The same measure, in the same setting: next, `CC(C)N(c1c(N(C(C)C)C(C)C)c1=NC(C)(C)C)C(C)C` [1.HCl, 3-(tert-butylimino)-N1,N1,N2,N2-tetraisopropylcycloprop-1-ene-1,2-diamine hydrochloride salt]: “without noticeable decomposition”.
On to `CN(C)C(=NC(C)(C)C)N(C)C` [BTMG], for which, in data set [2], the “pKBH+” value is 23.56.
As for `Cl.OC[C@H](Cc1ccccc1)N=c1c(N(C2CCCCC2)C2CCCCC2)c1N(C1CCCCC1)C1CCCCC1` [5.HCl, (S)-2-(2,3-bis(dicyclohexylamino)cycloallylamino)-3-phenylpropan-1-ol hydrochloride salt], in data set [1], the “storage stability of the hydrochloride salt” value is listed as “without noticeable decomposition”. The “Cyclopropenimine purity (%)” value in data set [3] (HCl salt stored at room temperature, 0 days) is 100%; in data set [3] (HCl salt stored at room temperature, 2 days), 100%; in data set [3] (HCl salt stored at room temperature, 9 days), 100%; in data set [3] (HCl salt stored at room temperature, 16 days), 100%; in data set [3] (HCl salt stored at room temperature, 23 days), 100%; in data set [3] (HCl salt stored at room temperature, 30 days), 100%. Besides, the “stability of the HCl salt” value in data set [3] (at room temperature) is on record as “indefinitely stable”.
Take `OC[C@H](Cc1ccccc1)N=c1c(N(C2CCCCC2)C2CCCCC2)c1N(C1CCCCC1)C1CCCCC1` [cyclopropenimine 5, (S)-2-(2,3-bis(dicyclohexylamino)cycloallylamino)-3-phenylpropan-1-ol]: the half-life in data set [3] (neat solid in a vial, pure sample stored at room temperature, followed over 30 days, read-out: t1/2 of conversion to rearranged compound 13 (converted)) was approximately 12 days. For the same compound, the “Cyclopropenimine purity (%)” value in data set [3] (solid stored at rt, 0 days) is 100%; in data set [3] (solid stored at rt, 2 days), 78%; in data set [3] (solid stored at rt, 9 days), 57%; in data set [3] (solid stored at rt, 16 days), 39%; in data set [3] (solid stored at rt, 23 days), 25%; in data set [3] (solid stored at rt, 30 days), 5%. Further, the “Cyclopropenimine purity (%)” value in data set [3] (solid stored at −20° C., 0 days) stood at 100%; in data set [3] (solid stored at −20° C., 2 days), 100%; in data set [3] (solid stored at −20° C., 9 days), 98%; in data set [3] (solid stored at −20° C., 16 days) it was 96%; in data set [3] (solid stored at −20° C., 23 days), 96%; in data set [3] (solid stored at −20° C., 30 days), 94%. In data set [3] (stored at −20° C., after 30 days), this compound displayed a sample still intact of 94%.
`CC(C)N(c1c(N(C(C)C)C(C)C)c1=NC(C)(C)C)C(C)C` [cyclopropenimine 1, 3-(tert-butylimino)-N1,N1,N2,N2-tetraisopropylcycloprop-1-ene-1,2-diamine]: in data set [4] (average of three trials, BTPP as reference base, CD3CN), the “Estimated pKBH+ (CD3CN), BTPP, Average” value is reported as 26.96. The “Estimated pKBH+ (CD3CN), DBU, Average” value in data set [4] (average of three trials, DBU as reference base, CD3CN) was 26.74. In addition, in data set [4] (in acetonitrile), the “acidity of the conjugate acid (pKBH+)” value is reported as 26.9 and the “basicity relative to comparable guanidine BTMG” value is on record as “three orders of magnitude more basic”. Moreover, the “Estimated pKBH+ (CD3CN), BTPP” value in data set [4] (single trial, BTPP as reference base, CD3CN) is 27.00 and 26.85 and 27.03. The “Estimated pKBH+ (CD3CN), DBU” value in data set [4] (single trial, DBU as reference base, CD3CN) was 26.75 and 26.74.
As for `CN(C)P(=NC(C)(C)C)(N(C)C)N(C)C` [P1-^tBu], in data set [2], the “pKBH+” value is listed as 26.98.
Turning to `C1CN=C2NCCCN2C1` [TBD], the “pKBH+” value in data set [2] is 26.03.
